Experimental data from the supplement of paper PMC10307832.

What was measured:
Assay in all cases: relative viability (nuclei count vs DMSO), 5 days (fraction); higher = more cells survive
[1] = compound: CC1=CC=C(C=C1)C(=O)CN2C3=C(CCCC3)SC2=N [Pifithrin_alpha] + Cc1cc(Nc2cc(N3CCN(C)CC3)nc(Sc3ccc(NC(=O)C4CC4)cc3)n2)n[nH]1 [Tozasertib] (partner 0.1 µM)
How it was run: (§1)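 Cells from lung cancer lines were seeded into 1536-well plates and, one day later, dosed by pin tool. Treatments were either a single drug or a fixed dose of an anchor drug with five library-drug doses (not always all listed) in √10 steps. After 5 days, nuclei were stained in a one-step fixation (final 0.05% Triton X-100, 1% formaldehyde, 1 ug/ml Hoechst) and counted on 4× images, and relative viability is the treated-to-vehicle nuclei ratio, as the median of duplicate plates.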

Axitinib + OSI-027 = compound: CNC(=O)c1ccccc1Sc1ccc2c(/C=C/c3ccccn3)n[nH]c2c1 [Axitinib] + COc1cccc2cc(-c3nc([C@H]4CC[C@H](C(=O)O)CC4)n4ncnc(N)c34)[nH]c12 [OSI-027] (partner 0.5 µM)
How it was run: as §1

Bemcentinib + Linsitinib = compound: Nc1nc(Nc2ccc3c(c2)CC[C@@H](N2CCCC2)CC3)nn1-c1cc2c(nn1)-c1ccccc1CCC2 [Bemcentinib] + C[C@]1(O)C[C@@H](c2nc(-c3ccc4ccc(-c5ccccc5)nc4c3)c3c(N)nccn32)C1 [Linsitinib] (partner 1 µM)
How it was run: as §1

Bemcentinib + Decitabine = compound: Nc1nc(Nc2ccc3c(c2)CC[C@@H](N2CCCC2)CC3)nn1-c1cc2c(nn1)-c1ccccc1CCC2 [Bemcentinib] + Nc1ncn([C@H]2C[C@H](O)[C@@H](CO)O2)c(=O)n1 [Decitabine] (partner 2 µM)
How it was run: as §1

Row | Cell Line | relative viability ([1]; first compound 1 µM) | relative viability ([1]; first compound 3.162 µM) | relative viability ([1]; first compound 10 µM) | relative viability ([1]; first compound 31.62 µM) | relative viability ([1]; first compound 100 µM) | relative viability (Axitinib + OSI-027; first compound 0.005 µM) | relative viability (Axitinib + OSI-027; first compound 0.01581 µM) | relative viability (Axitinib + OSI-027; first compound 0.05 µM) | relative viability (Axitinib + OSI-027; first compound 0.1581 µM) | relative viability (Axitinib + OSI-027; first compound 0.5 µM) | relative viability (Bemcentinib + Linsitinib; first compound 0.04 µM) | relative viability (Bemcentinib + Linsitinib; first compound 0.1265 µM) | relative viability (Bemcentinib + Linsitinib; first compound 0.4 µM) | relative viability (Bemcentinib + Linsitinib; first compound 1.265 µM) | relative viability (Bemcentinib + Linsitinib; first compound 4 µM) | relative viability (Bemcentinib + Decitabine; first compound 0.04 µM) | relative viability (Bemcentinib + Decitabine; first compound 0.1265 µM) | relative viability (Bemcentinib + Decitabine; first compound 0.4 µM) | relative viability (Bemcentinib + Decitabine; first compound 1.265 µM) | relative viability (Bemcentinib + Decitabine; first compound 4 µM)
1 | NCI-H647 | 0.339 | 0.382 | 0.288 | 0.188 | 0.145 | 0.703 | 0.617 | 0.69 | 0.551 | 0.787 | 1.17 | 1.35 | 1.12 | 1.28 | 1.17 | 0.386 | 0.296 | 0.494 | 0.368 | 0.454
2 | UMC-11 | 0.179 | 0.207 | 0.198 | 0.19 | 0.175 | 0.494 | 0.504 | 0.438 | 0.498 | 0.521 | 1.01 | 1.08 | 1.06 | 0.978 | 0.977 | 0.576 | 0.565 | 0.521 | 0.628 | 0.58
3 | LOU-NH91 | 0.663 | 0.612 | 0.637 | 0.543 | 0.578 | 0.736 | 0.513 | 0.745 | 0.719 | 0.707 | 0.942 | 0.895 | 0.959 | 0.943 | 0.956 | 0.78 | 0.82 | 0.837 | 0.863 | 0.801
4 | HCC-44 | 0.748 | 1.07 | 0.685 | 0.461 | 0.452 | 0.451 | 0.439 | 0.404 | 0.605 | 0.614 | 0.702 | 0.74 | 0.736 | 0.714 | 0.771 | 0.954 | 0.986 | 0.947 | 0.978 | 0.957
5 | HCC-15 | 0.463 | 0.544 | 0.245 | 0.212 | 0.165 | 0.725 | 0.679 | 0.689 | 0.65 | 0.623 | 0.828 | 0.983 | 0.923 | 0.904 | 0.93 | 0.641 | 0.696 | 0.71 | 0.646 | 0.661
6 | NCI-H1975 | 0.592 | 0.431 | 0.181 | 0.141 | 0.203 | 0.813 | 0.744 | 0.714 | 0.673 | 0.711 | 0.981 | 1.03 | 1.03 | 1.06 | 1.02 | 0.336 | 0.384 | 0.394 | 0.374 | 0.459
7 | NCI-H1651 | 0.678 | 0.592 | 0.403 | 0.33 | 0.384 | 0.73 | 0.683 | 0.725 | 0.601 | 0.674 | 0.958 | 0.965 | 1.15 | 1.15 | 1.08 | 0.588 | 0.623 | 0.678 | 0.491 | 0.584
8 | NCI-H661 | 0.359 | 0.354 | 0.358 | 0.355 | 0.346 | 0.741 | 0.754 | 0.721 | 0.617 | 0.855 | 0.587 | 0.53 | 0.609 | 0.656 | 0.548 | 0.558 | 0.654 | 0.547 | 0.57 | 0.557
